Data on eleven compounds can be found in ChEMBL document CHEMBL1201862, “PubChem BioAssay data set” (2004).

Values joined by “and” are separate entries in the source; they are usually repeats but may differ in a detail not shown here. Equal entries are not always repeated.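 Results reflect a 48-hour exposure of cells in 96-well plates to compound at five concentrations. GI50 = concentration required for 50% inhibition of growth.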 Active and inactive are the calls of the source. No stated cut-off is given here; in the data, active = GI50 up to about 1.1 µM and inactive = higher.

Test systems include 786-0; CCRF-CEM; HCT-15; HL-60; M14; MDA-MB-435; MOLT-4; NCI-H23; NCI-H460; SF-268; SF-295; SK-MEL-28; SK-MEL-5; SK-OV-3; SNB-19; TK-10; U-251; UACC-62; Malme-3M; UO-31.
Common to all, as to assay: DTP human tumour cell line panel, 48 h

In the case of `Cc1cc(C)n(C(=O)CSc2nc3ccc(I)cc3c(=O)n2Cc2ccccc2)n1`, the GI50 in the test on 786-0 is 28.3 µM (inactive); in the test on CCRF-CEM it was 67.1 µM (inactive); with HCT-15 it was 30.4 µM; in the test on HL-60, > 100 µM (inactive); with M14, 97.1 µM (inactive); in the test on MDA-MB-435 it was 73.6 µM (inactive). The GI50 with MOLT-4 was > 100 µM (inactive); in the test on NCI-H23, 65.8 µM (inactive); in the test on NCI-H460 it was 36.4 µM (inactive); in the test on SF-268, 17.3 µM (inactive); in the test on SF-295 it was 29.8 µM (inactive); in the test with SK-MEL-28, > 100 µM (inactive). Further, the GI50 is 25.2 µM (inactive) in the test with SK-MEL-5; 58.9 µM (inactive) in the test on SK-OV-3; 43.1 µM (inactive) in the test with SNB-19; 41.6 µM (inactive) in the test on TK-10; 35.8 µM (inactive) in the test on U-251; 80.5 µM (inactive) in the test with UACC-62.
With `O/N=C1/C(=C/c2ccc(Cl)cc2)CCCC1C(NO)c1ccc(Cl)cc1` (centres undefined), the GI50 in the test with 786-0 is 20.7 µM (inactive); with CCRF-CEM it was 19.1 µM (inactive); in the test on HCT-15, 19.1 µM; in the test on HL-60, 18.5 µM (inactive); with M14, 16.2 µM (inactive); in the test with MOLT-4, 14.7 µM (inactive). Moreover, the GI50 is 26.7 µM (inactive) in the test on Malme-3M; 20 µM (inactive) in the test on NCI-H23; 17.3 µM (inactive) in the test with NCI-H460; 15.9 µM (inactive) in the test with SF-268; 18.9 µM (inactive) with SF-295; 5.6 µM (inactive) with SK-MEL-28. Also, the GI50 in the test on SK-MEL-5 was 22.7 µM (inactive); in the test on SK-OV-3, 50.8 µM (inactive); in the test with SNB-19, 24.2 µM (inactive); with TK-10 it was 31.7 µM (inactive); with U-251, 20.7 µM (inactive); in the test on UACC-62, 29 µM (inactive). Besides, the GI50 in the test on UO-31 was 16.6 µM (inactive).
On to `C=CCSC1=N/C(=C\c2ccc(C)cc2)C(=O)N1CC=C`, for which the GI50 in the test on 786-0 was 18.3 µM (inactive); in the test with HCT-15 it was 25.3 µM; in the test on HL-60 it was 12.2 µM (inactive); in the test with M14 it was 29 µM (inactive); with MDA-MB-435, 25.9 µM (inactive); in the test on NCI-H23, 32.7 µM (inactive). The GI50 was 34.3 µM (inactive) in the test with NCI-H460; 36.6 µM (inactive) with SF-268; 43.5 µM (inactive) with SF-295; 45.7 µM (inactive) with SK-MEL-28; 14.3 µM (inactive) in the test on SK-MEL-5; 63.4 µM (inactive) in the test with SK-OV-3. Further, the GI50 is 32.4 µM (inactive) with SNB-19; 44.3 µM (inactive) in the test on TK-10; 22.7 µM (inactive) with U-251; 32.3 µM (inactive) in the test on UACC-62; 22.9 µM (inactive) in the test on UO-31.
In the case of `NC1=NC(=O)/C(=C2\CCNC(=O)c3[nH]c(Br)cc32)N1` [HYMENIALDISINE], the GI50 with 786-0 was 27.5 µM (inactive); in the test with CCRF-CEM, 2.43 µM (inactive) and 2.9 µM (inactive); in the test with HCT-15, 29.7 µM and 42.5 µM; in the test with HL-60, 1.6 µM (inactive) and 1.66 µM (inactive); in the test with M14, 9.89 µM (inactive); with MDA-MB-435 it was 5.58 µM (inactive). Moreover, the GI50 in the test with MOLT-4 is 4.28 µM (inactive) and 3.45 µM (inactive); in the test with NCI-H23, 80.9 µM (inactive) and 52.7 µM (inactive); with NCI-H460, 65.6 µM (inactive); in the test with SF-268 it was 8.93 µM (inactive) and 5.09 µM (inactive); with SF-295, > 100 µM (inactive); in the test with SK-MEL-28, 7.74 µM (inactive) and 13.8 µM (inactive). Moreover, the GI50 in the test with SNB-19 is 39.1 µM (inactive) and 48.2 µM (inactive); in the test with TK-10, 9.12 µM (inactive); with U-251, 26.4 µM (inactive) and 18.6 µM (inactive); in the test with UACC-62, 13.4 µM (inactive) and 9.62 µM (inactive); in the test with UO-31 it was 3.02 µM (inactive) and 5.6 µM (inactive).
On to `CN(C)c1nc2oc(-c3ccccc3)c(-c3ccccc3)c2c2nncn12`, for which the GI50 was > 100 µM (inactive) in the test with 786-0; > 100 µM (inactive) in the test on CCRF-CEM; > 100 µM in the test on HCT-15; > 100 µM (inactive) with M14; > 100 µM (inactive) in the test with MDA-MB-435; > 10 µM (inactive) in the test with MOLT-4. For the same compound, the GI50 in the test on NCI-H23, with SF-268, with SF-295, in the test with SK-MEL-28, with SK-OV-3 and in the test with SNB-19 was > 100 µM (inactive) throughout. The GI50 in the test with TK-10, in the test on U-251, in the test with UACC-62 and in the test with UO-31 was > 100 µM (inactive) throughout.
`Cc1c2c(n(CC(c3ccccc3)c3ccccc3)c1C)NN=C(C#N)S2(=O)=O`: the GI50 was > 100 µM (inactive) in the test on 786-0; > 100 µM in the test on HCT-15; > 100 µM (inactive) with M14; > 100 µM (inactive) in the test on MDA-MB-435; 37.7 µM (inactive) with MOLT-4; > 100 µM (inactive) with NCI-H23. Besides, the GI50 was > 100 µM (inactive) with NCI-H460; 64.1 µM (inactive) in the test on SF-268; > 100 µM (inactive) with SF-295; > 100 µM (inactive) in the test on SK-MEL-28; > 100 µM (inactive) with SK-MEL-5; > 100 µM (inactive) in the test with SK-OV-3. Also, the GI50 with SNB-19 is > 100 µM (inactive); with TK-10 it was > 100 µM (inactive); with U-251, > 100 µM (inactive); with UACC-62, 97.7 µM (inactive); with UO-31 it was > 100 µM (inactive).
In the case of `COc1ccc(-c2c(C3=NCCCN3)nnn2-c2ccc([N+](=O)[O-])cc2)cc1`, the GI50 with 786-0 is > 100 µM (inactive); in the test on CCRF-CEM, > 100 µM (inactive); in the test with HCT-15, > 100 µM; in the test with HL-60, > 100 µM (inactive); in the test with M14, > 100 µM (inactive); with MOLT-4 it was > 100 µM (inactive). Besides, the GI50 in the test on Malme-3M, with NCI-H23, in the test with NCI-H460, in the test on SF-268, with SF-295 and in the test with SK-MEL-28 was > 100 µM (inactive) in each case. For the same compound, the GI50 in the test on SK-MEL-5 is > 100 µM (inactive); in the test with SK-OV-3, 34.8 µM (inactive); in the test with SNB-19, > 100 µM (inactive); in the test on TK-10, > 100 µM (inactive); with U-251 it was > 100 µM (inactive); with UACC-62 it was > 100 µM (inactive). Also, the GI50 in the test with UO-31 was > 100 µM (inactive).
With `C[Si](C)(C)C#C[I+]c1ccccc1`, the GI50 is 45.6 µM (inactive) with 786-0; 15.1 µM (inactive) in the test with CCRF-CEM; 22.5 µM with HCT-15; 22.5 µM (inactive) in the test on HL-60; 23.5 µM (inactive) in the test with M14; 29.4 µM (inactive) with MOLT-4. The GI50 was 41 µM (inactive) in the test with Malme-3M; 36.8 µM (inactive) in the test with NCI-H23; > 100 µM (inactive) in the test with NCI-H460; 45.9 µM (inactive) in the test with SF-268; > 100 µM (inactive) in the test with SF-295; 39.4 µM (inactive) with SK-MEL-28. For the same compound, the GI50 with SK-MEL-5 was 45.9 µM (inactive); in the test with SK-OV-3, > 100 µM (inactive); with SNB-19, > 100 µM (inactive); in the test on TK-10, > 100 µM (inactive); in the test on U-251 it was 38 µM (inactive); with UACC-62, 33.2 µM (inactive). Further, the GI50 in the test on UO-31 was 67 µM (inactive).
`O=[N+]([O-])c1cccc(C2N3CCCCC3[C@@H]3c4[nH]c5ccccc5c4CCN23)c1` (some centres undefined): the GI50 in the test on 786-0 was 16.9 µM (inactive); in the test on CCRF-CEM it was 13.2 µM (inactive); with HCT-15, 10.4 µM; with HL-60, 10.1 µM (inactive); in the test with M14, 14.5 µM (inactive); with MOLT-4, 5.85 µM (inactive). Further, the GI50 is 2.55 µM (inactive) in the test on Malme-3M; 12.4 µM (inactive) in the test on NCI-H23; 16.4 µM (inactive) with NCI-H460; 12 µM (inactive) in the test on SF-268; 15.1 µM (inactive) in the test on SF-295; 16.3 µM (inactive) in the test with SK-MEL-28. The GI50 was 14.2 µM (inactive) in the test with SK-MEL-5; 17.8 µM (inactive) in the test with SK-OV-3; 19.7 µM (inactive) in the test with SNB-19; 14.4 µM (inactive) in the test on TK-10; 14.1 µM (inactive) in the test with U-251; 6.79 µM (inactive) with UACC-62. Besides, in the test with UO-31, the GI50 is 11.9 µM (inactive).
As for `O=C(c1ccccc1)c1nnn(Cc2ccccc2Cn2nnc(C(=O)c3ccccc3)c2C(=O)c2ccccc2)c1C(=O)c1ccccc1`, the GI50 in the test with 786-0 was > 100 µM (inactive); with CCRF-CEM, > 100 µM (inactive); in the test with HCT-15, > 100 µM; in the test on HL-60 it was > 100 µM (inactive); in the test on M14, > 100 µM (inactive); in the test on MOLT-4, > 100 µM (inactive). Further, the GI50 in the test with Malme-3M, in the test on NCI-H23, in the test on NCI-H460, with SF-268, in the test on SF-295 and in the test on SK-MEL-28 was > 100 µM (inactive) throughout. Besides, the GI50 in the test with SK-MEL-5, in the test with SK-OV-3, in the test with SNB-19, with TK-10, in the test on U-251 and in the test with UACC-62 was > 100 µM (inactive) each time. The GI50 in the test with UO-31 was > 100 µM (inactive).
For the compound `CCCCCCC(=O)CC(=O)C(=O)Nc1ccccc1C`, the GI50 with 786-0 was > 55.5 µM (inactive); in the test with CCRF-CEM, > 100 µM (inactive); with HCT-15, > 44.4 µM; in the test on HL-60 it was > 100 µM (inactive); with M14 it was > 100 µM (inactive); with MOLT-4, > 100 µM (inactive). The GI50 with Malme-3M is > 100 µM (inactive); with NCI-H23, > 100 µM (inactive); in the test with NCI-H460 it was > 51.1 µM (inactive); with SF-268, > 65.6 µM (inactive); with SF-295, > 100 µM (inactive); with SK-MEL-28, > 100 µM (inactive). For the same compound, the GI50 in the test with SK-MEL-5 was > 100 µM (inactive); with SK-OV-3, > 100 µM (inactive); in the test on SNB-19, > 100 µM (inactive); in the test on TK-10, > 100 µM (inactive); in the test on U-251 it was > 89.1 µM (inactive); in the test with UACC-62, > 100 µM (inactive). The GI50 in the test on UO-31 was > 100 µM (inactive).
